# Assay results reported in paper PMC10178848, “Modulating fast skeletal muscle contraction protects skeletal muscle in animal models of Duchenne muscular dystrophy” (The Journal of Clinical Investigation, 2023).
# Where two headings read alike, the source gives them in different places.
# Experiments:
# [1] = target: T1, MAOA (Homo sapiens, UniProt P21397); test: SAFETYscan Enzymatic; assay type: biochemical; design: dose or concentration left out as unconfirmed; conditions: read-out: Max Response (%) (Antagonist)
# T1 construct: purchased Eurofins DiscoverX (KINOMEscan; SAFETYscan E/IC50 ELECT)
# Description: (§1) The specificity of EDG-5506 for fast skeletal myosin over other, unrelated proteins was confirmed using two off-target binding and activity screens. […] A second off-target panel (SAFETYscan E/IC50 ELECT, Eurofins DiscoverX) tested in vitro enzyme activity against 78 proteins, including GPCR, ion channel, kinases, nuclear hormone receptors, and transporters. In all assays, the IC50 of EDG-5506 was more than 10 μM (Supplemental Data File 1).
# [2] = system: mdx EDL muscle; test: Procion orange dye uptake after eccentric contraction; design: species or system mouse
# Description: For procion imaging, injury protocols were performed in 1% procion MX Dye (020 Brilliant Orange, Jacquard Products) and fixed in cold 4% paraformaldehyde and then cold 30% sucrose/PBS before cryosection. Laminin immunohistochemistry used rabbit polyclonal (L9393, Sigma-Aldrich, 1:20) and chicken anti-rabbit Alexa Fluor 488 (Invitrogen, 1:500). Slides were scanned at ×20 with Nikon Te-2000 dark-field microscopy and analyzed with Imaris software (Bitplane AG). Imaris’ surface component algorithm was used to detect procion-labeled fiber boundaries. Nonspecific procion staining of the peripheral tendon and outer layer of cells (where handling could cause injury) was excluded by applying a size and location filter (>2× average fiber size and located adjacent to laminin-positive fibers at the edge of the muscle). Each fiber was identified with an ID and color coded before calculation.
# [3] = system: DBA/2J mdx mouse; test: 12-week dosing in DBA/2J mdx mice (fibrosis); assay type: in vivo; conditions: 12 weeks, chow
# Description: C57BL/6 (stock no. 000664), C57BL/10J (stock no. 000665, control for mdx experiments), C57BL/10ScSn-Dmd^mdx/J (mdx, stock no. 001801), and D2.B10 (DBA/2-congenic) Dmd^mdx (DBA/2J mdx, stock no. 013141) mice were from The Jackson Laboratory. Sprague-Dawley rats were purchased from Charles River Laboratories. For ex vivo experiments, mice were 10–16 weeks old. For in situ experiments, mice were 8–14 weeks of age. For in vivo chronic dosing studies, mdx and DBA/2J mdx were 4–5 weeks of age at study start. Dosing was via a 10 mL/kg suspension (1% methyl cellulose, 0.1% Tween 80 in water). For studies in 14-day-old preweaning mice, PO dosing was via syrup suspension (3 mg/kg/d). […]
# For sterile muscle injury, mice were anesthetized with isoflurane and 50 μL cardiotoxin (12 × 10^–6 M, 217503, Millipore) injected in the TA muscle. […] 8 μm cryosections were cut and stained with H&E. For each analysis, more than 10 slides (per condition/group) containing 6 muscle sections/sample were used, and myofibers in the injured area were counted and measured with a Mirax digital scanner and HALO software ([68]). […] Image analysis was performed using ImarisX64 software (Bitplane AG), and fiber sizing was calculated using minimal Feret’s diameter ([69]). […] Fiber type, size, and central nucleation were quantified with analysis via SMASH ([70]) and ImageJ (NIH). […]
# [4] = target: T2, JNK1 (Homo sapiens, UniProt P45983); test: KINOMEscan scanEDGE; assay type: binding; conditions: 20 uM
# T2 construct: purchased Eurofins DiscoverX (KINOMEscan; SAFETYscan E/IC50 ELECT)
# [5] = target: T3, PLK1 (Homo sapiens, UniProt P53350); test: KINOMEscan scanEDGE; assay type: binding; conditions: 20 uM
# T3 construct: purchased Eurofins DiscoverX (KINOMEscan; SAFETYscan E/IC50 ELECT)
# [6] = target: T4, ADRA2A (Homo sapiens, UniProt P08913); test: SAFETYscan cAMP; assay type: cell-based; design: dose or concentration left out as unconfirmed
# T4 construct: purchased Eurofins DiscoverX (KINOMEscan; SAFETYscan E/IC50 ELECT)
# T4 sequence (P08913 whole entry): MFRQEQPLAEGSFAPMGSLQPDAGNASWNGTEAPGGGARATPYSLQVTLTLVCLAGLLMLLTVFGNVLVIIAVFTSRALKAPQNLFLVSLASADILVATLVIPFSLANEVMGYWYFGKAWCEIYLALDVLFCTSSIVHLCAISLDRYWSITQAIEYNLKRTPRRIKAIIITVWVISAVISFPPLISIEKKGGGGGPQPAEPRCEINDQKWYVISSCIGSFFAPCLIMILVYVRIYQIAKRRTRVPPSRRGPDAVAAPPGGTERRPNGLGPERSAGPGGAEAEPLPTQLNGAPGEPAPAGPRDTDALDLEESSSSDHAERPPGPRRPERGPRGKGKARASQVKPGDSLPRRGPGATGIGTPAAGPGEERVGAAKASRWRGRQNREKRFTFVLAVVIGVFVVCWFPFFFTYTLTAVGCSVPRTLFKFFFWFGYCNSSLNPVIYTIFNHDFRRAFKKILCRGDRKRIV
# Description: as §1
# [7] = target: T5, CNR2 (Homo sapiens, UniProt P34972); test: SAFETYscan cAMP; assay type: cell-based; design: dose or concentration left out as unconfirmed
# T5 construct: purchased Eurofins DiscoverX (KINOMEscan; SAFETYscan E/IC50 ELECT)
# T5 sequence (P34972 whole entry): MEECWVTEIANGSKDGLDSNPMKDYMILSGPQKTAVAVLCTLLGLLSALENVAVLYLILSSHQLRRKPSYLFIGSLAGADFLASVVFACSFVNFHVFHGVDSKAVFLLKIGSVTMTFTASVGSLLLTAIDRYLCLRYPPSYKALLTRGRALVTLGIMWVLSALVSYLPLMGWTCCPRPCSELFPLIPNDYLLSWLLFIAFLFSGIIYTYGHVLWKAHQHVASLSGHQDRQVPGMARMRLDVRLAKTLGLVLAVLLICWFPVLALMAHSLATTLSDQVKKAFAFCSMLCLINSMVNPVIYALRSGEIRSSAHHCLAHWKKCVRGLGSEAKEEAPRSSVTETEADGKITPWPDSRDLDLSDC
# Description: as §1
# [8] = target: T6, OPRK1 (Homo sapiens, UniProt P41145); test: SAFETYscan cAMP; assay type: cell-based; design: dose or concentration left out as unconfirmed
# T6 construct: purchased Eurofins DiscoverX (KINOMEscan; SAFETYscan E/IC50 ELECT)
# T6 sequence (P41145 whole entry): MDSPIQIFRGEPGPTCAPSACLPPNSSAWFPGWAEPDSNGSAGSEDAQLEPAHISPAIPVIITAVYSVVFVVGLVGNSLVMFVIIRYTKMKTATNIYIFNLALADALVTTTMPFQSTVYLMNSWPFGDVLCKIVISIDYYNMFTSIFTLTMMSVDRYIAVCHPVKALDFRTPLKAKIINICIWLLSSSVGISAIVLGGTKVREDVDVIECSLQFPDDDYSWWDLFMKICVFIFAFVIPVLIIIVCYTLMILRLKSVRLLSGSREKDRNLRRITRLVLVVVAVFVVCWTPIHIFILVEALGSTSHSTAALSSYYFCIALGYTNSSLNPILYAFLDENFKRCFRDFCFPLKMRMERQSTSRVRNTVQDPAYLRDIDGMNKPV
# Description: as §1
# [9] = target: T7, HTR1A (Homo sapiens, UniProt P08908); test: SAFETYscan cAMP; assay type: cell-based; design: dose or concentration left out as unconfirmed
# T7 construct: purchased Eurofins DiscoverX (KINOMEscan; SAFETYscan E/IC50 ELECT)
# T7 sequence (P08908 whole entry): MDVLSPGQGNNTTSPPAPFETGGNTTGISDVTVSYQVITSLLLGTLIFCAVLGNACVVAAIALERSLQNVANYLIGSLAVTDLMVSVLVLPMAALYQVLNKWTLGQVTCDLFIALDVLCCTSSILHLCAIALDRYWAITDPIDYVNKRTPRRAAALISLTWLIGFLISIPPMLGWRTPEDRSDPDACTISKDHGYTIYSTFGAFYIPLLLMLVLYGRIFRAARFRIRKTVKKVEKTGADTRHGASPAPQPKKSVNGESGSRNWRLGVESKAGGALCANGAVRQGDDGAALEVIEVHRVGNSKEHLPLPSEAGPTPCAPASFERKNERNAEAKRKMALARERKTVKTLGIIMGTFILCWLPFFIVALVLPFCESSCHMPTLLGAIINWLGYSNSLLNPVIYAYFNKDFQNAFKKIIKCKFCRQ
# Description: as §1
# [10] = target: T8, OPRD1 (Homo sapiens, UniProt P41143); test: SAFETYscan cAMP; assay type: cell-based; design: dose or concentration left out as unconfirmed
# T8 construct: purchased Eurofins DiscoverX (KINOMEscan; SAFETYscan E/IC50 ELECT)
# Description: as §1
# [11] = target: T9, HTR1B (Homo sapiens, UniProt P28222); test: SAFETYscan cAMP; assay type: cell-based; design: dose or concentration left out as unconfirmed
# T9 construct: purchased Eurofins DiscoverX (KINOMEscan; SAFETYscan E/IC50 ELECT)
# T9 sequence (P28222 whole entry): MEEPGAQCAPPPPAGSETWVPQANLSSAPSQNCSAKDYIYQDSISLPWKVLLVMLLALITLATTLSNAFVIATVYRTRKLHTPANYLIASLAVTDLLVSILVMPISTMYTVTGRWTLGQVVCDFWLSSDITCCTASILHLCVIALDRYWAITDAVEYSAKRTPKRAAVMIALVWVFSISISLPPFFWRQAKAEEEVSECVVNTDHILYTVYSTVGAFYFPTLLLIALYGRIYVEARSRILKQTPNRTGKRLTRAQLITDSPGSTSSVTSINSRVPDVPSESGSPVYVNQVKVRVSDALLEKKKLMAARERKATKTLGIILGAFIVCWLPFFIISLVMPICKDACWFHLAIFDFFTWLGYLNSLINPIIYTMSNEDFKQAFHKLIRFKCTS
# Description: as §1
# [12] = target: T10, DRD2S (Homo sapiens, UniProt P14416); test: SAFETYscan cAMP; assay type: cell-based; design: dose or concentration left out as unconfirmed
# T10 construct: purchased Eurofins DiscoverX (KINOMEscan; SAFETYscan E/IC50 ELECT)
# Description: as §1
# [13] = target: T11, HRH2 (Homo sapiens, UniProt P25021); test: SAFETYscan cAMP; assay type: cell-based; design: dose or concentration left out as unconfirmed
# T11 construct: purchased Eurofins DiscoverX (KINOMEscan; SAFETYscan E/IC50 ELECT)
# T11 sequence (P25021 whole entry): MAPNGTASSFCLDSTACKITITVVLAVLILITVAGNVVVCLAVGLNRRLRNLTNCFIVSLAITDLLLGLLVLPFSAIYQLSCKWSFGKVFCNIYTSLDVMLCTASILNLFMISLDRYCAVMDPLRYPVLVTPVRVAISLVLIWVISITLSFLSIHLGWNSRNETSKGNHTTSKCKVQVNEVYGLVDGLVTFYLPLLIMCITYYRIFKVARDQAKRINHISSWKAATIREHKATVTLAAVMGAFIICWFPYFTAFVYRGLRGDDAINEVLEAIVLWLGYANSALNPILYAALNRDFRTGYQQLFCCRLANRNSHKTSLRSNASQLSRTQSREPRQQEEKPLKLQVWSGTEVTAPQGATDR
# Description: as §1
# [14] = target: T12, DRD1 (Homo sapiens, UniProt P21728); test: SAFETYscan cAMP; assay type: cell-based; design: dose or concentration left out as unconfirmed
# T12 construct: purchased Eurofins DiscoverX (KINOMEscan; SAFETYscan E/IC50 ELECT)
# T12 sequence (P21728 whole entry): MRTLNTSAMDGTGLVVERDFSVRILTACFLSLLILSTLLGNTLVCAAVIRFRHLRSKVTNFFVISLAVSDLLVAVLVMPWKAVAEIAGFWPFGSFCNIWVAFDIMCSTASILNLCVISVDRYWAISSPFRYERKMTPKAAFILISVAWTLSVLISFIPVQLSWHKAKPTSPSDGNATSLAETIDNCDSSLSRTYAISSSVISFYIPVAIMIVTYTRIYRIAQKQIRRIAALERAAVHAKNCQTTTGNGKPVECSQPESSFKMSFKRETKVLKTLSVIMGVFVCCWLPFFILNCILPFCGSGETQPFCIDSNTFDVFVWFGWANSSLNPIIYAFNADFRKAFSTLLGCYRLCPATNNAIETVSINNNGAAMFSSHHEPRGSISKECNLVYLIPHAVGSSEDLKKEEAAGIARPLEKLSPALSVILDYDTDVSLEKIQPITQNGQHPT
# Description: as §1
# [15] = target: T13, ADRB1 (Homo sapiens, UniProt P08588); test: SAFETYscan cAMP; assay type: cell-based; design: dose or concentration left out as unconfirmed
# T13 construct: purchased Eurofins DiscoverX (KINOMEscan; SAFETYscan E/IC50 ELECT)
# T13 sequence (P08588 whole entry): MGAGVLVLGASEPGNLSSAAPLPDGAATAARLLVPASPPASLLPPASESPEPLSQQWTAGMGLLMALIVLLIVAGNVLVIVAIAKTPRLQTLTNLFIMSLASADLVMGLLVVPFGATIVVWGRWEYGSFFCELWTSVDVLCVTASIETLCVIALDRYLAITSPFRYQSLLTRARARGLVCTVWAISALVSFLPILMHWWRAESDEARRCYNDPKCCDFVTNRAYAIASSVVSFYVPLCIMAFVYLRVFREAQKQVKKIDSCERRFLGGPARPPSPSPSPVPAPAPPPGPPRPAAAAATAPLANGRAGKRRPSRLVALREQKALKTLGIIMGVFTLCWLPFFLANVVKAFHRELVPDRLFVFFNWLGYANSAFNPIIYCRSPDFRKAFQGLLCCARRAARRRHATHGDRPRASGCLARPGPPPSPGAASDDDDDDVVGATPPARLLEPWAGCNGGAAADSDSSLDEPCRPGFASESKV
# Description: as §1
# [16] = target: T14, CNR1 (Homo sapiens, UniProt P21554); test: SAFETYscan cAMP; assay type: cell-based; design: dose or concentration left out as unconfirmed
# T14 construct: purchased Eurofins DiscoverX (KINOMEscan; SAFETYscan E/IC50 ELECT)
# T14 sequence (P21554 whole entry): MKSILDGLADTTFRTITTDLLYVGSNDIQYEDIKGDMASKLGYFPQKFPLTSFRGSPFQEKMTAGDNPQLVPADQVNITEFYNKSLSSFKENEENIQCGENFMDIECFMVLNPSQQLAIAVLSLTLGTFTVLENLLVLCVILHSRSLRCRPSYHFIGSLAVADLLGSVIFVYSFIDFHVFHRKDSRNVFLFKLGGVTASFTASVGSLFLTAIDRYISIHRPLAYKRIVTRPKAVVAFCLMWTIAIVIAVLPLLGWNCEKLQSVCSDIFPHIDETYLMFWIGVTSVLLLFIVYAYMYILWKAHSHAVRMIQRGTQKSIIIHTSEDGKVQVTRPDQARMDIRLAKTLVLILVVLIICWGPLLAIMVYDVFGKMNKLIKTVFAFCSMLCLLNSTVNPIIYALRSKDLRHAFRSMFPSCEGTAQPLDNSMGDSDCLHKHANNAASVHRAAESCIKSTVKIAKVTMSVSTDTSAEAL
# Description: as §1
# [17] = target: T15, ADRB2 (Homo sapiens, UniProt P07550); test: SAFETYscan cAMP; assay type: cell-based; design: dose or concentration left out as unconfirmed
# T15 construct: purchased Eurofins DiscoverX (KINOMEscan; SAFETYscan E/IC50 ELECT)
# T15 sequence (P07550 whole entry): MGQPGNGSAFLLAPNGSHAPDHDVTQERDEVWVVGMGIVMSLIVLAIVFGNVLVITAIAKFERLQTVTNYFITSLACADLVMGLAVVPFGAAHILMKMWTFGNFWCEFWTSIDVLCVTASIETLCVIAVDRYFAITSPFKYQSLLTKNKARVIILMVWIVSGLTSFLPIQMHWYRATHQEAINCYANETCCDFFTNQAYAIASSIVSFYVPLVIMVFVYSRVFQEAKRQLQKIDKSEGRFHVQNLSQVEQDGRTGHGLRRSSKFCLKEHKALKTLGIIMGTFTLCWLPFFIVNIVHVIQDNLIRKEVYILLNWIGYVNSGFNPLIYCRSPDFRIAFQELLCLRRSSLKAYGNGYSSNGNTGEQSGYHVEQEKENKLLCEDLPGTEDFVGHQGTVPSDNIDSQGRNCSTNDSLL
# Description: as §1
# [18] = target: T16, CHRM2 (Homo sapiens, UniProt P08172); test: SAFETYscan cAMP; assay type: cell-based; design: dose or concentration left out as unconfirmed
# T16 construct: purchased Eurofins DiscoverX (KINOMEscan; SAFETYscan E/IC50 ELECT)
# T16 sequence (P08172 whole entry): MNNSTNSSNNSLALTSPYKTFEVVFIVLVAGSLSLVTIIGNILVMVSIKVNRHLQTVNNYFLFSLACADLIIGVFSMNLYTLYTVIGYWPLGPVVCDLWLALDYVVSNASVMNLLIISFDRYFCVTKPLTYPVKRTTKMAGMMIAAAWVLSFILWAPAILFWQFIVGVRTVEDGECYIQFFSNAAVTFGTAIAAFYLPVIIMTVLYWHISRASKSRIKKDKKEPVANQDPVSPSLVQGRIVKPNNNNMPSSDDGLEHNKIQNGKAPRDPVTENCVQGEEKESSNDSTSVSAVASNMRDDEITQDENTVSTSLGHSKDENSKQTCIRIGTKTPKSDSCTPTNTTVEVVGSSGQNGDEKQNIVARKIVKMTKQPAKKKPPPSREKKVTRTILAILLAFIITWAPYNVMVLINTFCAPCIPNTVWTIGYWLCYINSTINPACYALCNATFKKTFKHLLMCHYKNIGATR
# Description: as §1
# [19] = read-out: Max Response (%) (Agonist)
# [20] = read-out: Max Response (%) (Antagonist)
structure (smiles),measurement,setting,value
O=c1ccc(-c2cnc(OCC(F)(F)F)nc2)nn1Cc1cncc(F)c1 [EDG-5506],Emax,[1],7.79%
same,membrane-impermeable dye (procion orange) uptake,[2],effectively reduced dye uptake
same,fibrosis in TA and diaphragm muscles,[3],reduced fibrosis
same,left ventricular fibrosis,[3],trend toward lower fibrosis
same,"binding, % of control",[4],72 % of control
same,"binding, % of control",[5],100 % of control
same,Emax,[6]; [19],19.2%
same,Emax,[6]; [20],0.88%
same,Emax,[7]; [19],27.5%
same,Emax,[7]; [20],0%
same,Emax,[8]; [19],9.76%
same,Emax,[8]; [20],0.05%
same,Emax,[9]; [19],0%
same,Emax,[9]; [20],1.51%
same,Emax,[10]; [19],7.61%
same,Emax,[10]; [20],9.41%
same,Emax,[11]; [19],0%
same,Emax,[11]; [20],4.17%
same,Emax,[12]; [19],7.3%
same,Emax,[12]; [20],1.39%
same,Emax,[13]; [19],0%
same,Emax,[13]; [20],15%
same,Emax,[14]; [19],3.04%
same,Emax,[14]; [20],14.3%
same,Emax,[15]; [19],2.02%
same,Emax,[15]; [20],9.68%
same,Emax,[16]; [19],14.8%
same,Emax,[16]; [20],3.38%
same,Emax,[17]; [19],0.97%
same,Emax,[17]; [20],20.8%
same,Emax,[18]; [19],21.5%
same,Emax,[18]; [20],0%
